Where two headings read alike, the source gives them in different places.
What was measured:
HN = assay: Cancer cell line profiling, Genomics of Drug Sensitivity Project; type: cell-based; details: read-out: CD532 EC50 (uM), Head & Neck
TT = assay: as above; type: cell-based; details: Homo sapiens, read-out: CD532 EC50 (uM), Thyroid
[1] = test system: Kelly MYCN-amplified neuroblastoma cells; assay: Viability at 72 hrs, CyQUANT assay; type: cell-based; details: FIG. 1F, read-out: cellular EC50 at 72 hrs
Experimental: Neuroblastoma cells were treated for the indicated time, trypsinized, washed, stained with Dylight 800 at 0.3 μg/mL (Pierce, 46421), fixed with 1.5% PFA, and permeabilized with 100% methanol. Cells were then stained with antibodies against p-MPM2 (Millipore, 16-155), p-pan-Aurora (Cell Signaling, 2914), MYCN (Thermo, PA5-17403), rabbit IgG (Invitrogen, A10542), or mouse IgG (BioLegend, 405307). Cells were stained with DAPI at 0.3 μg/mL (Invitrogen, D21490) and analyzed on the BD LSR II flow cytometer. For cell cycle analysis, cells were stimulated with EdU for 2 hours prior to harvest, then probed using the Click-iT EdU Flow Cytometry Assay Kit (Invitrogen, C10424). Cells were stained with propidium iodide (BD, 556547) and analyzed on the BD FACSCalibur flow cytometer. Data was gated using Cytobank. For viability studies, neuroblastoma cells were plated in 96-well plates at a density of 1,000 cells/well for SHEP or 4,000 cells/well for Kelly or SK—N-BE2 cells, then incubated with indicated concentrations of drug for 72 hours at 37° C. […] CyQUANT reagent mixture (Invitrogen, C7026) was added to thawed plates, then fluorescence was measured. Alternatively, resazurin (Sigma-Aldrich, R7017) was added directly to wells following drug treatment then incubated for 4 hours at 37° C. prior to measuring fluorescence. Data was analyzed using GraphPad Prism software.

[2] = test system: MYCN-expressing, SHH-subtype medulloblastoma allograft; assay: Medulloblastoma allograft in mice; type: in vivo
Experimental: Mice were injected intraperitoneally as described. For determining tumor volume, for example in medulloblastoma model mice, mice were euthanized once maximum tumor length exceeded 2.0 cm, per IACUC protocol (IACUC, Institutional Animal Care and Use Committee).

MEL-HO = assay: Cancer cell line profiling, Genomics of Drug Sensitivity Project; details: read-out: CD532 EC50 (uM)
SK-MEL-3 = assay: as above; details: Homo sapiens, SK-MEL3, read-out: CD532 EC50 (uM)
MEWO = assay: as above; details: Homo sapiens, read-out: CD532 EC50 (uM)
SNU-1 = assay: as above; details: Homo sapiens, SNU1, read-out: CD532 EC50 (uM)
SNU-5 = assay: as above; details: Homo sapiens, SNU-5, read-out: CD532 EC50 (uM)
SCH = assay: as above; details: read-out: CD532 EC50 (uM)
DOK = assay: as above; details: read-out: CD532 EC50 (uM)
HO-1-u-1 = assay: as above; details: read-out: CD532 EC50 (uM)
SAS = assay: as above; details: read-out: CD532 EC50 (uM)
HSC-3 = assay: as above; details: Homo sapiens, HSC-3, read-out: CD532 EC50 (uM)
CL-11 = assay: as above; details: CL-11, read-out: CD532 EC50 (uM)
BFTC-909 = assay: as above; details: Homo sapiens, BFTC-909, read-out: CD532 EC50 (uM)
NH-12 = assay: as above; details: read-out: CD532 EC50 (uM)
JHH-1 = assay: as above; details: JHH1, read-out: CD532 EC50 (uM)
A101D = assay: as above; details: Homo sapiens, read-out: CD532 EC50 (uM)
LOXIMVI = assay: as above
MMAC-SF = assay: as above; details: read-out: CD532 EC50 (uM)
MZ7-mel = assay: as above
SH-4 = assay: as above; details: Homo sapiens, SH-4, read-out: CD532 EC50 (uM)
RF-48 = assay: as above; details: RF48, read-out: CD532 EC50 (uM)
NBsusSR = assay: as above; details: read-out: CD532 EC50 (uM)
EFO-21 = assay: as above; details: Homo sapiens, EFO-21, read-out: CD532 EC50 (uM)

O=C(Nc1ccc(Nc2nccc(Nc3cc(C4CCCC4)[nH]n3)n2)cc1)Nc1cccc(C(F)(F)F)c1 [CD532, 1-(4-((4-((5-cyclopentyl-1H-pyrazol-3-yl)amino)pyrimidin-2-yl)amino)phenyl)-3-(3-(trifluoromethyl)phenyl)urea]
EC50 (HN): 1.63 µM
EC50 (TT): 0.972 µM
EC50 [1]: 147 nM
overall survival ([2]; 25 mg/kg b.i.w. vs vehicle): statistical significant increase in overall survival
tumor growth (tumor size over time) ([2]; 25 mg/kg b.i.w., intraperitoneal injection): inhibits growth
EC50 (MEL-HO): 0.411 µM
EC50 (SK-MEL-3): 0.567 µM
EC50 (MEWO): 1.46 µM
EC50 (SNU-1): 0.158 µM
EC50 (SNU-5): 2.51 µM
EC50 (SCH): 1.24 µM
EC50 (DOK): 0.512 µM
EC50 (HO-1-u-1): 9.81 µM
EC50 (SAS): 1.46 µM
EC50 (HSC-3): 2.33 µM
EC50 (CL-11): 4.93 µM
EC50 (BFTC-909): 1.51 µM
EC50 (NH-12): 0.37 µM
EC50 (JHH-1): 0.295 µM
EC50 (A101D): 0.429 µM
EC50 (LOXIMVI; Homo sapiens, LOX IMVI, read-out: CD532 EC50 (uM), LOXIMVI cell line, Skin): 0.732 µM
EC50 (LOXIMVI; read-out: CD532 EC50, LOXIMVI cell line, Skin): 0.384 µM
EC50 (MMAC-SF): 0.566 µM
EC50 (MZ7-mel; read-out: CD532 EC50 (uM), MZ7-mel cell line, Skin): 0.73 µM
EC50 (MZ7-mel; read-out: CD532 EC50, MZ7-mel cell line, Skin): 0.556 µM
EC50 (SH-4): 0.783 µM
EC50 (RF-48): 0.903 µM
EC50 (NBsusSR): 0.382 µM
EC50 (EFO-21): 1.87 µM
